Experimental data from patent publication US6638972B2, “Chroman and benzofuran derivatives as 5-hydroxytryptamine-6 ligands” (Wyeth, priority 2001, dated 2003).
Counter-ions that a name gives are not always drawn. Like-named read-outs stand apart in the source and are kept apart here.

How the values were obtained:
[1] = molecular target: T1, human cloned 5-HT6 receptors (Homo sapiens, UniProt P50406); assay: 5-HT6 binding affinity ([3H]-LSD displacement, membranes of Hela cells expressing human cloned 5-HT6 receptors); conditions: [3H]-LSD 3.0 nM, Hela cell membranes, 120 min at room temperature
T1 construct: expressed in transfected cells; host or cells: HeLa cells (membrane preparation)
Protocol: The affinity of test compounds for the serotonin 5-T6 receptor is evaluated in the following manner. Cultured Hela cells expressing human cloned 5-HT6 receptors are harvested and centrifuged at low speed (1,000×g) for 10.0 min to remove the culture media. The harvested cells are suspended in half volume of fresh physiological phosphate buffered saline solution and recentrifuged at the same speed. This operation is repeated. The collected cells are then homogenized in ten volumes of 50 mM Tris.HCl (pH 7.4) and 0.5 mM EDTA. The homogenate is centrifuged at 40,000×g for 30.0 min and the precipitate is collected. The obtained pellet is resuspended in 10 volumes of Tris.HCl buffer and recentrifuged at the same speed. The final pellet is suspended in a small volume of Tris.HCl buffer and the tissue protein content is determined in aliquots of 10-25 μl volumes. Bovine Serum Albumin is used as the standard in the protein determination according to the method described in Lowry et al., J. Biol. Chem., 193:265 (1951). The volume of the suspended cell membranes is adjusted to give a tissue protein concentration of 1.0 mg/ml of suspension. The prepared membrane suspension (10 times concentrated) is aliquoted in 1.0 ml volumes and stored at −70° C. until used in subsequent binding experiments.
Binding experiments are performed in a 96 well microtiter plate format, in a total volume of 200 μl. […] The test compounds are added in 20.0 μl volume.
The reaction is allowed to proceed in the dark for 120 min at room temperature, at which time, the bound ligand-receptor complex is filtered off on a 96 well unifilter with a Packard Filtermate® 196 Harvester. The bound complex caught on the filter disk is allowed to air dry and the radioactivity is measured in a Packard TopCount® equipped with six photomultiplier detectors, after the addition of 40.0 μl Microscint®-20 scintillant to each shallow well. The unifilter plate is heat-sealed and counted in a PackardTopCount® with a tritium efficiency of 31.0%.
Binding in the presence of varying concentrations of test compound is expressed as a percentage of specific binding in the absence of test compound. The results are plotted as log % bound versus log concentration of test compound. […] A linear regression line of data points is plotted, from which the IC50 value is determined and the Ki value is determined based upon the following equation: […]
where L is the concentration of the radioactive ligand used and KD is the dissociation constant of the ligand for the receptor, both expressed in nM.

T1 sequence (P50406 whole entry): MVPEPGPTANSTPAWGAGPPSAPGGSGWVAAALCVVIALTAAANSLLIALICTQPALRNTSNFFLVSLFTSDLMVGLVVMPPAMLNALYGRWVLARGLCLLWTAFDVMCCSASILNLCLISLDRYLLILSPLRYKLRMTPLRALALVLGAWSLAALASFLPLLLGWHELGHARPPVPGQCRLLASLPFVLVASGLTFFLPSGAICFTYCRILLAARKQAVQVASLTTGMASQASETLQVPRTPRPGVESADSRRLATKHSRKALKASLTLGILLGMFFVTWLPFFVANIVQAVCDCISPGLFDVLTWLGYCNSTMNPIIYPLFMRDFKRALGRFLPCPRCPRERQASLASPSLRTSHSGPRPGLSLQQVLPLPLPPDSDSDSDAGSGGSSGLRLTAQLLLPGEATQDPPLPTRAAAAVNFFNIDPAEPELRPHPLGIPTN

| SMILES | Ki ([1]; read-out: 5-HT6 Binding Ki) [nM] | melting point [°C] | Ki ([1]; 5-HT6 Binding Ki) [nM] |
| --- | --- | --- | --- |
| CN(CCCO)CC1CCc2ccc(OCc3ccccc3)cc2O1 (stereo not shown) [Example 30, 3-{[(7-benzyloxy)chroman-2-ylmethyl]methylamino}propan-1-ol Fumaric Acid Salt] | 27 | – | – |
| OCCCNCC1CCc2ccc(OCc3ccccc3Cl)cc2O1 (stereo not shown) [Example 14, 3-{[7-(2-chloro-benzyloxy)-chroman-2-ylmethyl]-amino}-propan-1-ol] | 38 | – | – |
| Clc1cccc(OCCCNCC2CCc3ccc(OCc4ccccc4)cc3O2)c1 (stereo not shown) [Example 34, (7-benzyloxy-chroman-2-ylmethyl)-[3-(3-chloro-phenoxy)-propyl]-amine] | 192 | 110 to 116 | – |
| Cc1nc(COc2ccc3c(c2)OC(CNCCCO)CC3)cs1 (stereo not shown) (as salt: HCl) [Example 24, 3-{[7-(2-methyl-thiazol-4-ylmethoxy)-chroman-2-ylmethyl]-amino}-propan-1-ol] | – | 123 to 128 | – |
| OCCNCC1CCc2ccc(OCc3ccccc3)cc2O1 (stereo not shown) (as salt: hydrochloride) [Example 9, 2-[(7-benzyloxy-chroman-2-ylmethyl)-amino]-ethanol] | – | 200 to 201 | – |
| c1ccc(COCCCNCC2CCc3ccc(OCc4ccccc4)cc3O2)cc1 (stereo not shown) (as salt: hydrochloride) [Example 11, (7-benzyloxy-chroman-2-ylmethyl)-(3-benzyloxy-propyl)-amine] | – | 138 to 139 | – |
| CCCCNCC1CCc2ccc(OCc3ccccc3)cc2O1 (stereo not shown) [Example 12, (7-benzyloxy-chroman-2-ylmethyl)-butyl-amine] | 43 | – | – |
| CCCCOCCCNCC1CCc2ccc(OCc3ccccc3)cc2O1 (stereo not shown) (as salt: hydrochloride) [Example 8, (7-benzyloxy-chroman-2-ylmethyl)-(3-butoxy-propyl)-amine] | – | 130 to 132 | – |
| OCCNC[C@H]1CCc2ccc(OCc3ccccc3)cc2O1 [Example 44] | 10 | 196 to 197 | – |
| CCCCOCCCNCC1CCc2ccc(OCc3ccccc3)cc2O1 (stereo not shown) [Example 8, (7-benzyloxy-chroman-2-ylmethyl)-(3-butoxy-propyl)-amine] | 16 | – | – |
| Cc1nc(COc2ccc3c(c2)OC(CNCCCO)CC3)cs1 (stereo not shown) [Example 24, 3-{[7-(2-methyl-thiazol-4-ylmethoxy)-chroman-2-ylmethyl]-amino}-propan-1-ol] | – | – | 120 |
| c1ccc(CNCc2cc3ccc(OCc4ccccc4)cc3o2)cc1 [Example 54, benzyl-(6-benzyloxy-benzofuran-2-ylmethyl)-amine] | 1350 | 198 to 200 | – |
| Cc1nc(COc2ccc3c(c2)OC(CNCCCO)CC3)cs1 (stereo not shown) (as salt: salt) [Example 23, 3-{[7-(2-methyl-thiazol-4-ylmethoxy)-chroman-2-ylmethyl]-amino}-propan-1-ol] | – | 94 to 102 | – |
| Cc1nc(COc2ccc3c(c2)OC(CNCCCO)CC3)cs1 (stereo not shown) [Example 23, 3-{[7-(2-methyl-thiazol-4-ylmethoxy)-chroman-2-ylmethyl]-amino}-propan-1-ol] | – | – | 41 |
| O=[N+]([O-])c1cccc(OCCCNCC2CCc3ccc(OCc4ccccc4)cc3O2)c1 (stereo not shown) [Example 33, (7-benzyloxy-chroman-2-ylmethyl)-[3-(3-nitro-phenoxy)-propyl]-amine] | 69 | 82 to 87 | – |
| OCCCNCC1CCc2ccc(OCc3ccccc3Cl)cc2O1 (stereo not shown) (as salt: hydrochloride) [Example 14, 3-{[7-(2-chloro-benzyloxy)-chroman-2-ylmethyl]-amino}-propan-1-ol] | – | 114 to 115 | – |
| OC[C@H](CSCc1ccccc1)NCC1CCc2ccc(OCc3ccccc3)cc2O1 (stereo partly drawn) [Example 37, (2R)-2-[(7-benzyloxy-chroman-2-ylmethyl)-amino]-3-benzylsulfanyl-propan-1-ol] | 303 | 59 to 65 | – |
| OCCCNCC1CCc2ccc(Oc3ccccc3)cc2O1 (stereo not shown) (as salt: hydrochloride) [Example 15, 3-[(7-phenoxy-chroman-2-ylmethyl)-amino]-propan-1-ol] | – | 178 to 179 | – |
| OCCNCC1Cc2ccc(OCc3ccccc3)cc2O1 (stereo not shown) [Example 51, 2-{[6-(Benzyloxy)-2,3-dihydrobenzofuran-2-ylmethyl]amino}ethanol Hydrochloride] | 386 | – | – |

Second part, led by results:

| Ki ([1]; read-out: 5-HT6 Binding Ki) [nM] | melting point [°C] | SMILES | Ki ([1]; 5-HT6 Binding Ki) [nM] |
| --- | --- | --- | --- |
| – | 150 to 151 | CCCCNCC1CCc2ccc(OCc3ccccc3)cc2O1 (stereo not shown) (as salt: hydrochloride) [Example 12, (7-benzyloxy-chroman-2-ylmethyl)-butyl-amine] | – |
| 357 | – | OCCCNCC1CCc2ccc(OCC3CCCCC3)cc2O1 (stereo not shown) [Example 13, 3-[(7-cyclohexylmethoxy-chroman-2-ylmethyl)-amino]-propan-1-ol] | – |
| 283 | – | OCCCNCC1CCc2ccc(Oc3ccccc3)cc2O1 (stereo not shown) [Example 15, 3-[(7-phenoxy-chroman-2-ylmethyl)-amino]-propan-1-ol] | – |
| 9 | 119 | OCCCNC[C@H]1CCc2ccc(OCc3ccccc3)cc2O1 [Example 45, 3-{[(2R)-7-benzyloxy-chroman-2-ylmethyl]-amino}-propan-1-ol] | – |
| 107 | – | OCCCNCCC1CCc2ccc(OCc3ccccc3)cc2O1 (stereo not shown) [Example 42, 3-{[2-(7-Benzyloxy)chroman-2-yl]ethylamino}propan-1-ol Hydrochloride] | – |
| 1180 | 145 to 147 | OCCCNCc1cc2ccc(OCc3ccccc3)cc2o1 [Example 55, 3-[(6-benzyloxy-benzofuran-2-ylmethyl)-amino]-propan-1-ol] | – |
| 25 | 128 to 129 | COCCCNC[C@H]1CCc2ccc(OCc3ccccc3)cc2O1 [Example 46, [(2R)-7-benzyloxy-chroman-2-ylmethyl]-(3-methoxy-propyl)-amine] | – |
| 43 | 92 to 95 | O=c1ccc2ccc(OCCCNCC3CCc4cc(Cl)c(OCc5ccccc5)cc4O3)cc2o1 (stereo not shown) [Example 36, 7-{3-[(7-benzyloxy-6-chloro-chroman-2-ylmethyl)-amino]-propoxy}-chromen-2-one] | – |
| 101 | – | OCCCNCC1CCc2ccc(OCCc3ccccc3)cc2O1 (stereo not shown) [Example 22, 3-{[(7-(Phenethyloxy)chroman-2-ylmethyl]amino}propan-1-ol Hydrochloride] | – |
| – | 138 to 139 | c1ccc(CCCNCC2CCc3ccc(OCc4ccccc4)cc3O2)cc1 (stereo not shown) (as salt: hydrochloride) [Example 10, (7-benzyloxy-chroman-2-ylmethyl)-(3-phenyl-propyl)-amine] | – |
| 26 | – | c1ccc(CNCC2CCc3ccc(OCc4ccccc4)cc3O2)cc1 (stereo not shown) [Example 7, Benzyl-[(7-benzyloxy)chroman-2-yl]methylamine Hydrochloride] | – |
| 34 | – | OCCCNCC1CCc2cc(Cl)c(OCc3ccccc3)cc2O1 (stereo not shown) [Example 29, 3-{[(7-Benzyloxy)-6-chlorochroman-2-ylmethyl]amino}propan-1-ol Fumaric Acid Salt] | – |
| – | 159 to 160 | OCCCNCC1CCc2ccc(OCC3CCCCC3)cc2O1 (stereo not shown) (as salt: hydrochloride) [Example 13, 3-[(7-cyclohexylmethoxy-chroman-2-ylmethyl)-amino]-propan-1-ol] | – |
| 339 | 125 to 127 | OCCCNCC1Cc2ccc(OCc3ccccc3)cc2O1 (stereo not shown) [Example 53, 3-[(6-benzyloxy-2,3-dihydro-benzofuran-2-ylmethyl)-amino]-propan-1-ol] | – |
| 15 | – | NCC1CCc2ccc(OCc3ccccc3)cc2O1 (stereo not shown) [Example 6, [(7-Benzyloxy)chroman-2-yl]methylamine Hydrochloride] | – |
| 44 | – | c1ccc(CCCNCC2CCc3ccc(OCc4ccccc4)cc3O2)cc1 (stereo not shown) [Example 10, (7-benzyloxy-chroman-2-ylmethyl)-(3-phenyl-propyl)-amine] | – |
| 29 | 63 to 68 | O=c1ccc2ccc(OCCCNCC3CCc4ccc(OCc5ccccc5)cc4O3)cc2o1 (stereo not shown) [Example 35, 7-{3-[(7-benzyloxy-chroman-2-ylmethyl)-amino]-propoxy}-chromen-2-one] | – |
| 27 | – | c1ccc(COCCCNCC2CCc3ccc(OCc4ccccc4)cc3O2)cc1 (stereo not shown) [Example 11, (7-benzyloxy-chroman-2-ylmethyl)-(3-benzyloxy-propyl)-amine] | – |
| 12 | – | OCCNCC1CCc2ccc(OCc3ccccc3)cc2O1 (stereo not shown) [Example 9, 2-[(7-benzyloxy-chroman-2-ylmethyl)-amino]-ethanol] | – |
